SMILES strings stand for the structures. Active and inactive are the calls of the source. No rule for the calls is given here.

In the test the test system is M. tuberculosis H37Rv growth inhibition with meropenem. Briefly: dose response, H37Rv, with and without meropenem (AID 434987).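 Also: growth over 7 days at 37 °C before Alamar Blue read on day 9.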
The mark [1] stands for this setting: M. tuberculosis H37Rv growth inhibition, measured here: IC50 without meropenem.
The mark [2] stands for this setting: M. tuberculosis H37Rv growth inhibition, measured here: IC90 without meropenem.
Where [3] appears, read: measured here: IC90 with meropenem.

For `COc1cc(NC(=O)C2CCCCC2)c(OC)cc1NC(=O)CN1CCCCC1`, the IC50 was 9.28 µM. The concentration for half-maximal inhibition (IC50) under setting [1] was 47.4 µM. The same molecule gave a 90% effect concentration (IC90) under setting [2] above 100 µM. Under setting [3], this molecule showed an IC90 above 100 µM.

As for `O=C(Nc1c2c(nc3ccccc13)CCCC2)c1ccccc1F`, the IC50 was 42.6 µM (inactive). Further, the IC50 under setting [1] worked out at 74 µM. This molecule also came in with an IC90 under setting [2] above 100 µM. This molecule also came in with an IC90 under setting [3] above 50 µM.

On to `COc1cc(SC)ccc1C(=O)Nc1ccc(C)cc1C`, for which the IC50 is 38.3 µM. Also, the IC50 under setting [1] was above 100 µM. The molecule further showed a 90% effect concentration (IC90) under setting [2] above 100 µM. Moreover, the concentration for an effect of 90% (IC90) under setting [3] is above 100 µM.

`O=C1C(Cl)=C(N2CCCCC2)C(=O)N1c1ccccc1`: the IC50 is 23.9 µM. Besides, the half-maximal inhibitory concentration (IC50) under setting [1] is above 100 µM. The molecule also yielded a 90% effect concentration (IC90) under setting [2] above 100 µM. For the same molecule, the IC90 under setting [3] was above 50 µM.

With `O=C(COc1ccc2ccccc2c1)Nc1nc2ccccc2[nH]1`, the half-maximal inhibitory concentration (IC50) was 5.83 µM. Under setting [1], this molecule gave an IC50 of 62 µM. Also, the IC90 under setting [2] is above 100 µM. The concentration for an effect of 90% (IC90) under setting [3] was above 100 µM.

`O=C(Oc1oc(-c2ccco2)nc1C=Nc1ccc(Cl)cc1)c1ccco1`: the IC50 is 15 µM. This molecule showed an IC50 under setting [1] above 100 µM. The IC90 under setting [2] is above 100 µM. Also, the 90% effect concentration (IC90) under setting [3] was above 100 µM.

Consider `O=C(CN1CCC(O)(c2ccc3c(c2)OCO3)CC1)OC1CCCCC1`, for which the 50% inhibitory concentration (IC50) is 12.8 µM. The same molecule had an IC50 under setting [1] of 38.5 µM. For the same molecule, the IC90 under setting [2] is above 100 µM. The molecule also returned a 90% effect concentration (IC90) under setting [3] of 35.3 µM.

On to `CCCCNC(=O)c1onc(CSc2ccccc2C)c1C(=O)O`, for which the IC50 was 45.3 µM (inactive). The molecule further registered an IC50 under setting [1] of 81.1 µM. This molecule also registered an IC90 under setting [2] above 100 µM. Moreover, under setting [3], the IC90 was determined as 50.6 µM.

With `COc1cc2c(cc1OC)C(c1ccccc1)CC2=O` (configuration not stated), the IC50 is 43.3 µM (inactive). The same molecule showed an IC50 under setting [1] of 94 µM. Also, under setting [2], the 90% effect concentration (IC90) is above 100 µM. Under setting [3], this molecule had a concentration for an effect of 90% (IC90) above 100 µM.

For `CCC1(CC)Cc2ccccc2C(N)=C1C#N`, the IC50 is > 100 µM (inactive). The molecule also returned an IC50 under setting [1] above 100 µM. The concentration for an effect of 90% (IC90) under setting [2] was above 100 µM. The same molecule gave a concentration for an effect of 90% (IC90) under setting [3] above 100 µM.

Turning to `CC(OC(=O)c1ccc([N+](=O)[O-])o1)C(=O)NC1CCCCC1C` (configuration not stated), the IC50 was 15.6 µM (inactive). Under setting [1], this molecule had a 50% inhibitory concentration (IC50) of 26.3 µM. For the same molecule, under setting [2], the IC90 came out at 70.6 µM. The molecule also gave an IC90 under setting [3] above 100 µM.

As to `O=c1c(N=Nc2ccc(O)cc2)c(-c2ccccc2)[nH]n1-c1ccc([N+](=O)[O-])cc1`, the IC50 is > 100 µM (inactive). Also, the IC50 under setting [1] is above 100 µM. Further, the concentration for an effect of 90% (IC90) under setting [2] is above 100 µM. The molecule also returned an IC90 under setting [3] above 100 µM.

For `O=C(/C=C/c1cccnc1)c1ccc(O)cc1`, the IC50 is 19.8 µM (inactive). Besides, the 50% inhibitory concentration (IC50) under setting [1] came out at 34.2 µM. Further, under setting [2], the IC90 stood at 46.9 µM. This molecule also returned an IC90 under setting [3] of 50.4 µM.

In the case of `O=C(CSC1CS(=O)(=O)c2cc([N+](=O)[O-])ccc21)NNC(=O)c1ccccc1` (configuration not stated), the IC50 was 11.8 µM. In addition, the IC50 under setting [1] is 89 µM. The molecule also came in with an IC90 under setting [2] of 94.3 µM. This molecule also registered a concentration for an effect of 90% (IC90) under setting [3] of 13.3 µM.

Regarding `NCCS`, the IC50 was > 100 µM (inactive). The same molecule returned an IC50 under setting [1] above 100 µM. This molecule showed an IC90 under setting [2] above 100 µM. Also, the concentration for an effect of 90% (IC90) under setting [3] was above 100 µM.

Regarding `Cc1ccc(-n2c(SCC(=O)OC(C)C)nnc2-c2ccco2)cc1`, the IC50 is 37.6 µM (inactive). Under setting [1], this molecule returned an IC50 of 62 µM. This molecule also had a 90% effect concentration (IC90) under setting [2] above 100 µM. The same molecule registered an IC90 under setting [3] above 100 µM.

Regarding `C=CCNC1=C(Cl)C(=O)N(c2cccc(Cl)c2Cl)C1=O`, the IC50 is 13.9 µM. Under setting [1], the concentration for half-maximal inhibition (IC50) worked out at 46.5 µM. Further, the IC90 under setting [2] is above 100 µM. The IC90 under setting [3] was found to be 30.2 µM.

`COc1ccc2oc(C(=O)Nc3nc4ccccc4[nH]3)c(C)c2c1`: the half-inhibitory concentration (IC50) is 1.7 µM. The same molecule gave an IC50 under setting [1] of 36.9 µM. This molecule had an IC90 under setting [2] above 100 µM. The molecule further registered a concentration for an effect of 90% (IC90) under setting [3] above 100 µM.

On to `CCOC(=O)C1=C(C)N=c2s/c(=C\c3ccncc3)c(=O)n2C1c1ccc2c(c1)OCO2` (configuration not stated), for which the IC50 is 69.7 µM (inactive). The half-inhibitory concentration (IC50) under setting [1] was 95.7 µM. The same molecule showed an IC90 under setting [2] above 100 µM. This molecule returned an IC90 under setting [3] above 100 µM.

Take `CC1(C)C[C@@H]1C(=O)N/C(=C\CCCCSC[C@H](N)C(=O)O)C(=O)O`: the IC50 is > 100 µM (inactive). Also, under setting [1], the IC50 was above 100 µM. This molecule also came in with an IC90 under setting [2] above 100 µM. The concentration for an effect of 90% (IC90) under setting [3] is above 100 µM.

As for `CCOC(=O)c1ccc(-c2ccc(C=O)o2)cc1`, the IC50 was 29.1 µM (inactive). The molecule also gave an IC50 under setting [1] of 44.6 µM. For the same molecule, the IC90 under setting [2] is above 100 µM. Further, the IC90 under setting [3] is above 100 µM.

In the case of `O=C(NC1c2ccccc2-c2ccccc21)c1ccco1`, the IC50 was > 100 µM (inactive). Under setting [1], the IC50 is above 100 µM. Also, under setting [2], the IC90 is above 100 µM. The 90% effect concentration (IC90) under setting [3] was above 100 µM.

For the molecule `Cc1cc(C)c(-c2c(O)c3ccccc3n(C)c2=O)c(C)c1`, the IC50 is 9.29 µM. The molecule further yielded an IC50 under setting [1] of 48.8 µM. This molecule also showed an IC90 under setting [2] above 100 µM. Besides, the concentration for an effect of 90% (IC90) under setting [3] came to 42.2 µM.

The values are drawn from PubChem BioAssay AID434987 (Southern Research Specialized Biocontainment Screening …, 2010).
